In patent publication US8614236B2 (University of Washington, priority 2006, dated 2013):
“Also recorded” adds a separate entry of the source.

Legend:
humans = details: 250 mg tid; Balanos et al. abstract 2006; cited from earlier work
PASMCs [1] = assay: Changes in membrane potential (Em) in PASMCs, DiBAC4(3) fluorescence; format: cell-based, rat; details: 100 μM
Procedure: (§1) The method for obtaining single PASMCs has been described previously in Shimoda L. A., et al., Am J Physiol 274: 842-853 (1998), which is hereby incorporated by reference in its entirety. Intrapulmonary arteries (200-600 μm o.d.) were isolated from male Wistar rats (250-350 g) and cleaned of connective tissue. After the lumen was gently rubbed with a cotton swab to remove the endothelial cells, the arteries were allowed to recover for 30 minutes in cold (4° C.) HBSS containing (in mM): 130 NaCl, 5 KCl, 1.2 MgCl2, 1.5 CaCl2, 10 N-[2-hydroxyethyl]piperazine-N′-[2-ethanesulfonic acid] (HEPES) and 10 glucose, with pH adjusted to 7.2 with 5 M NaOH, followed by 20 minutes in reduced-Ca^2+ (20 μM CaCl2) HBSS at room temperature. The tissue was enzymatically digested in reduced-Ca^2+ HBSS containing collagenase (type I; 1750 U/ml), papain (9.5 U/ml), bovine serum albumin (2 mg/ml) and dithiothreitol (1 mM) at 37° C. for 20 minutes. Following digestion, single smooth muscle cells were dispersed by gentle trituration with a wide-bore transfer pipette in Ca^2+-free HBSS and the cell suspension was placed on 25 mm glass cover slips. PASMCs were transiently cultured in Ham's-F-12 media supplemented with 0.5% fetal bovine serum and 1% penicillin/streptomycin for 24-48 hrs. before study.
Changes in membrane potential were measured using the fluorescence dye, DiBAC4(3), which was excited at 490 nm and detected at 510 nm. Cells were loaded by continuous perfusion with Kreb's solution containing 500 nM DiBAC4(3) and were perfused for at least 15 minutes before beginning measurements to insure stable uptake of dye. Baseline DiBAC4(3) fluorescence was monitored for 5 minutes with control Kreb's, followed by 10 minutes with Kreb's in the presence or absence of AZ (100 μM). At the end of this period, cells were challenged with KCl (60 mM) or endothelin-1 (ET-1) (10^−8 M). Since DiBAC4(3) is a single wavelength dye, any change in the concentration of the dye in the perfusion medium (i.e., differing concentrations between perfusion reservoirs) could result in a change in fluorescence that is not due to a change in membrane potential. To minimize the possibility of this type of error, all experiments were performed using inflow from a single reservoir into which AZ, KCl or ET-1 were dissolved directly.
AZ has recently been proposed to alter the activation of Ca^2+-activated K^+ channels, causing hyperpolarization. See Pickkers P., et al., Br J Pharmacol 132: 443-450 (2001); Tricarico D., et al., Ann Neurol 48: 304-312 (2000); and Tricarico D., et al., Faseb J 18: 760-761 (2004), which are hereby incorporated by reference in their entirety. Since depolarization is believed to contribute to the hypoxia-induced increase in [Ca^2+]i, AZ-induced hyperpolarization could prevent activation of voltage-gated Ca^2+ channels and an increase in [Ca^2+]i in response to hypoxia. In order to test this possibility, the Em-sensitive fluorescent dye, DiBAC4(3) was used. […] Baseline fluorescence was relatively stable over time, decreasing by 4.11±0.4% over 10 minutes (n=90 cells).

PASMCs [2] = assay: KCl-induced Ca2+ responses in PASMCs; format: cell-based, rat
Procedure: as §1, with “Intrapulmonary” for “The method for obtaining single PASMCs has been described previously in Shimoda L. A., et al., Am J Physiol 274: 842-853 (1998), which is hereby incorporated by reference in its entirety. Intrapulmonary”, “The tissue was enzymatically digested in reduced-Ca^2+ HBSS containing collagenase (type I; 1750 U/ml), papain (9.5 U/ml), bovine serum albumin (2 mg/ml) and dithiothreitol (1 mM) at 37° C. for 20 minutes.” left out
Acute hypoxia increases intracellular [Ca^2+] in pulmonary arterial smooth muscle by enhancing capacitative Ca^2+ entry. […] Ratiometric measurement of fluorescence from the dye was performed on a workstation (Intracellular Imaging Inc, Cincinnati, Ohio) consisting of a Nikon TSE 100 Ellipse inverted microscope with epi-fluorescence attachments. The light beam from a xenon arc lamp was filtered at 340 and 380 nm, and focused onto the PASMCS under examination via a 20× fluorescence objective (Super Fluor 20, Nikon). Light emitted from the cell at 510 nm was returned through the objective and detected by a cooled CCD imaging camera. An electronic shutter (Sutter Instruments) was used to minimize photobleaching of dye. Protocols were executed and data collected on-line with InCyte software (Intracellular Imaging Inc). [Ca^2+]i was estimated from in vitro calibration solutions.

Beagle dogs = assay: Dog study: arterial blood gases, ventilation and acid-base status in normoxia and hypoxia; format: in vivo; details: po 5 mg/kg 12 and 1 hr before; hypoxia 3rd h

Q: With `CC(=O)Nc1nnc(S(N)(=O)=O)s1` [AZ, acetazolamide] as the compound, how does the “reduction of HPV in humans” value (humans) read?
A: Its value is 50%.

Q: And the “change in basal DiBAC4(3) fluorescence (basal Em)” value (PASMCs [1])?
A: Its value is −2.86±4.5%.

Q: And the “effect on basal Em” value (PASMCs [1])?
A: Its value is “no significant effect”.

Q: What about the “increase in DiBAC4(3) fluorescence induced by ET-1 in presence of compound” value (PASMCs [1]; ET-1) of the same compound?
A: The value was 66.0±10.4%.

Q: And the “increase in DiBAC4(3) fluorescence induced by KCl in presence of compound” value (PASMCs [1]; KCl)?
A: Its value is 53.13±14.8%.

Q: And the “effect on KCl-induced increase in [Ca^2+]i” value (PASMCs [2]; 100 μM)?
A: Its value is “no effect; also recorded: not altered”.

Q: What about the “[Ca^2+]i after KCl” value (PASMCs [2]; KCl 60 mM, pretreatment 100 μM) of the same compound?
A: Its value is 292.6 ± 21.2 nM.

Q: And the “mean change in [Ca^2+]i in response to KCl” value (PASMCs [2]; KCl 60 mM, pretreatment 100 μM, control 123.4±20.6 nM)?
A: Its value is 134.7 ± 18.2 nM.

Q: And the “[Ca^2+]i before KCl” value (PASMCs [2]; pretreatment 100 μM)?
A: The value was 157.8 ± 11.9 nM.

Q: What about the “HCO3a, arterial actual bicarbonate concentration” value (Beagle dogs) of the same compound?
A: Its value is 16.9 ± 0.5 mM.
